From patent US6956113B2 (priority 2000, dated 2005)

System: bioluminescent Salmonella tester strains (his- cells)

[N-]=[N+]=[N-] [NaN, sodium azide]
bioluminescent revertants after independent exposure (mutagenicity): detection of bioluminescent revertants
